The test system of one assay is HCV genotype 1b replicon. Kind of assay: HCV replicon assay, genotype 1b. The format is cell-based, hepatitis C virus. The following applies: Hepatitis C virus; genotype 1b replicon cells, 24 to 72 hours incubation, luciferase activity. The method, then:
The HCV replicons and NS5A inhibitory activity of the present compounds may be tested using assays known in the art. HCV inhibitors, such as those described in the Examples herein have activities in genotype 1b, 2a and 1a replicon assays of from about 1 pM to about 1 μM. The assay is performed by incubating a replicon harboring cell-line in the presence of inhibitor for a set period of time and measuring the effect of the inhibitor on HCV replicon replication either directly by quantifying replicon RNA level, or indirectly by measuring enzymatic activity of a co-encoded reporter enzyme such as luciferase or β-lactamase. By performing a series of such measurements at different inhibitor concentrations, the effective inhibitory concentration of the inhibitor (EC50 or EC90) is determined. See Jan M. Vrolijk et al., A replicons-based bioassay for the measurement of interferons in patients with chronic hepatitis C, 110 J. VIROLOGICAL METHODS 201 (2003). Such assays may also be run in an automated format for high through-put screening. See Paul Zuck et al., A cell-based β-lactamase reporter gene assay for the identification of inhibitors of hepatitis C virus replication, 334 ANALYTICAL BIOCHEMISTRY 344 (2004).
Measurement of inhibition by compounds was performed using the HCV replicon system. Several different replicons encoding different HCV genotypes or mutations were used. In addition, potency measurements were made using different formats of the replicon assay, including different ways of measurements and different plating formats. See Jan M. Vrolijk et al., A replicons-based bioassay for the measurement of interferons in patients with chronic hepatitis C, 110 J. VIROLOGICAL METHODS 201 (2003); Steven S. Carroll et al., Inhibition of Hepatitis C Virus RNA Replication by 2′-Modified Nucleoside Analogs, 278(14) J. BIOLOGICAL CHEMISTRY 11979 (2003). However, the underlying principles are common to all of these determinations, and are outlined below.
Stable neomycin phosphotransferase encoding replicon-harboring cell lines were used, so all cell lines were maintained under G418 selection prior to the assay. In some cases, the cell lines encoded a luciferase:Neor fusion and could be assayed either directly by determination of RNA copy number, or indirectly through measurement of the luciferase activity.
To initiate an assay, replicon cells were plated in the presence of a dilution series of test compound in the absence of G418. Typically, the assays were performed in a 96-well plate format for manual operation, or a 384-well plate in an automated assay. Replicon cells and compound were incubated for 24 to 72 hours. At the end of the assay, cells are washed free of media and compound and then lysed. Luciferase activity was measured using a conventional luciferase assay. EC50 determinations were calculated as a percent of a DMSO control by fitting the data to a four parameter fit function.
The activity table below provides representative data illustrating observed activity against genotype 1b.
As a reminder, the EC50 is the concentration that produces a half-maximal response. Read a high EC50 as weaker potency. Regarding `O=C(Nc1ccc(-c2cc3nc(NC(=O)[C@@H]4CCCN4C(=O)Cc4ccccc4)ccc3[nH]2)cc1)[C@@H]1CCCN1C(=O)Cc1ccccc1` [Example 2, (2S)-1-(phenylacetyl)-N-{2-[4-({[(2S)-1-(phenylacetyl)pyrrolidin-2-yl]carbonyl}amino)phenyl]-1H-pyrrolo[3,2-b]pyridin-5-yl}pyrrolidine-2-carboxamide], the concentration giving a half-maximal response (EC50) came out at 9 nM. That is a single-digit nanomolar value. As for `O=C(Nc1ccc(-c2[nH]c3ncc(NC(=O)[C@@H]4CCCN4C(=O)Cc4ccccc4)cc3c2Cl)cc1)[C@@H]1CCCN1C(=O)Cc1ccccc1` [Example 6, (2S)—N-{3-chloro-2-[4-({[(2S)-1-(phenylacetyl)pyrrolidin-2-yl]carbonyl}amino)phenyl]-1H-pyrrolo[2,3-b]pyridin-5-yl}-1-(phenylacetyl)pyrrolidine-2-carboxamide], the response was half-maximal at 200 nM (EC50).

In turn, `CC(C)(C)OC(=O)N[C@H](C(=O)N1CCC[C@H]1C(=O)Nc1ccc(-c2nc3cc(NC(=O)[C@@H]4CCCN4C(=O)[C@@H](NC(=O)OC(C)(C)C)c4ccccc4)ccc3[nH]2)cc1)c1ccccc1` [Example 14, tert-butyl {(1S)-2-[(2S)-2-({4-[5-({[(2S)-1-{(2S)-2-[(tert-butoxycarbonyl)amino]-2-phenylacetyl}pyrrolidin-2-yl]carbonyl}amino)-1H-benzimidazol-2-yl]phenyl}carbamoyl)pyrrolidin-1-yl]-2-oxo-1-phenylethyl}carbamate] displayed an EC50 of 10 nM. Turning to `CC(C)(C)OC(=O)N[C@@H](C(=O)N1CCC[C@H]1C(=O)Nc1ccc(-c2nc3cc(NC(=O)[C@@H]4CCCN4C(=O)[C@H](NC(=O)OC(C)(C)C)c4ccccc4)ccc3[nH]2)cc1)c1ccccc1` [Example 15, tert-butyl {(1R)-2-[(2S)-2-({4-[5-({[(2S)-1-{(2R)-2-[(tert-butoxycarbonyl)amino]-2-phenylacetyl}pyrrolidin-2-yl]carbonyl}amino)-1H-benzimidazol-2-yl]phenyl}carbamoyl)pyrrolidin-1-yl]-2-oxo-1-phenylethyl}carbamate], a half-maximal response (EC50) required 0.045 nM. The same measure, in the same setting: the figure for `CC(=O)Nc1ccc(-c2cc3cc(NC(=O)[C@@H]4CCCN4C(=O)[C@H](NC(=O)OC(C)(C)C)c4ccccc4)ccc3o2)cc1` [Example 19, N-{2-[4-(acetylamino)phenyl]-1-benzofuran-5-yl}-1-{(2R)-2-[(tert-butoxycarbonyl)amino]-2-phenylacetyl}-L-prolinamide] is 25 nM. In turn, `CCN(CC)[C@@H](C(=O)N1CCC[C@H]1C(=O)Nc1ccc(-c2cc3cc(NC(=O)[C@@H]4CCCN4C(=O)[C@@H](c4ccccc4)N(CC)CC)ccc3o2)cc1)c1ccccc1` [Example 26, (2S)-1-[(2R)-2-(diethylamino)-2-phenylacetyl]-N-(4-{5-[({(2S)-1-[(2R)-2-(diethylamino)-2-phenylacetyl]pyrrolidin-2-yl}carbonyl)amino]-1-benzofuran-2-yl}phenyl)pyrrolidine-2-carboxamide] had an EC50 of 0.063 nM.

Compound `CCN(CC)[C@@H](C(=O)N1CCC[C@H]1C(=O)Nc1ccc2oc(-c3ccc(NC(C)=O)cc3)cc2c1)c1ccccc1` [Example 30] showed an EC50 of 26 nM.

`O=C(Nc1ccc2[nH]c(-c3cc4cc(NC(=O)[C@@H]5CCCN5C(=O)Cc5ccccc5)ccc4[nH]3)cc2c1)[C@@H]1CCCN1C(=O)Cc1ccccc1` [Example 39, (2S,2′S)—N,N′,1H,1′H-2,2′-biindole-5,5′-diylbis[1-(phenylacetyl)pyrrolidine-2-carboxamide]] showed an EC50 of 0.24 nM. On to `CC(C)(C)OC(=O)N[C@@H](C(=O)N1CCCC1C(=O)Nc1ccc2[nH]c(-c3cc4cc(NC(=O)[C@@H]5CCCN5C(=O)[C@H](NC(=O)OC(C)(C)C)c5ccccc5)ccc4[nH]3)cc2c1)c1ccccc1` (stereo partly drawn) [Example 40], for which the EC50 is 0.026 nM. For `CC(C)(C)OC(=O)N[C@@H](C(=O)N1CCC[C@H]1C(=O)Nc1ccc2[nH]c(-c3ccc(NC(=O)[C@@H]4CCCN4C(=O)Cc4ccccc4)cc3)cc2c1)c1ccccc1` [Example 41], the midpoint of the response, the EC50, lay at 0.05 nM. Compared with the last compound, the EC50 is about 1.9-fold higher. For `O=C(Nc1cnc(-c2cc3cc(NC(=O)[C@@H]4CCCN4C(=O)Cc4ccccc4)ccc3[nH]2)nc1)[C@@H]1CCCN1C(=O)Cc1ccccc1` [Example 42], it took 14 nM to reach a half-maximal effect (EC50). The same measure, in the same setting: the figure for `O=C(Nc1ccc(-c2cc3cc(NC(=O)[C@@H]4CCCN4C(=O)[C@@H](c4ccccc4)N4CCCC4)ccc3[nH]2)cc1)[C@@H]1CCCN1C(=O)[C@@H](c1ccccc1)N1CCCC1` [Example 45, (2S)-1-[(2R)-2-phenyl-2-(pyrrolidin-1-yl)acetyl]-N-(4-{5-[({(2S)-1-[(2R)-2-phenyl-2-(pyrrolidin-1-yl)acetyl]pyrrolidin-2-yl}carbonyl)amino]-1H-indol-2-yl}phenyl) pyrrolidine-2-carboxamide] is 0.02 nM; for `O=C(Nc1ccc(-c2cc3cc(NC(=O)[C@@H]4CCCN4C(=O)C(Cc4ccccc4)c4ccccc4)ccc3[nH]2)cc1)[C@@H]1CCCN1C(=O)C(Cc1ccccc1)c1ccccc1` (stereo partly drawn) [Example 49] it is 0.072 nM; for `CC(=O)Nc1ccc(-c2cc3cc(NC(=O)[C@@H]4CCCN4C(=O)[C@@H](c4ccccc4)N4CCCC4)ccc3[nH]2)cc1` [Example 58, N-{2-[4-(acetylamino)phenyl]-1H-indol-5-yl}-1[(2R)-2-phenyl-2-(pyrrolidin-1-yl)acetyl]-L-prolinamide] it is 0.97 nM.

`O=C(Nc1ccc(-c2cc3cc(NC(=O)[C@@H]4CCCN4C(=O)[C@@H](c4ccccc4)N4CCCCC4)ccc3[nH]2)cc1)[C@@H]1CCCN1C(=O)[C@@H](c1ccccc1)N1CCCCC1` [Example 60, (2S)-1-[(2R)-2phenyl-2-(piperidin-1-yl)acetyl]-N-(4-{5-[({(2S)-1-[(2R)-2-phenyl-2-(piperidin-1-yl)acetyl]pyrrolidin-2-yl}carbonyl)amino]-1H-indol-2-yl}phenyl)pyrrolidine-2-carboxamide] yielded an EC50 of 0.13 nM. As for `CCN(CC)[C@@H](C(=O)N1CCC[C@H]1C(=O)Nc1ccc(-c2cc3cc(NC(=O)[C@@H]4CCCN4C(=O)[C@@H](c4ccccc4)N(CC)CC)ccc3[nH]2)cc1)c1ccccc1` [Example 62, (2S)-1-[(2R)-2-(diethylamino)-2-phenylacetyl]-N-(4-{5-[({(2S)-1-[(2R)-2-(diethylamino)-2-phenylacetyl]pyrrolidin-2-yl}carbonyl)amino]-1H-indol-2-yl}phenyl)pyrrolidine-2-carboxamide], the EC50 amounted to 0.067 nM. The compound `CN(C)[C@@H](C(=O)N1CCC[C@H]1C(=O)Nc1ccc2c(c1)CCc1c-2[nH]c2ccc(NC(=O)[C@@H]3CCCN3C(=O)[C@@H](c3ccccc3)N(C)C)cc12)c1ccccc1` [Example 94, (2S,2′S)-N,N′-6,11-dihydro-5H-benzo[a]carbazole-3,8-diylbis{1-[(2R)-2-(dimethylamino)-2-phenylacetyl]pyrrolidine-2-carboxamide}] had an EC50 of 0.006 nM. On the same count and under the same terms, the figure for `CN(C)[C@@H](C(=O)N1CCC[C@H]1C(=O)Nc1ccc2c(c1)CCCc1c-2[nH]c2ccc(NC(=O)[C@@H]3CCCN3C(=O)[C@@H](c3ccccc3)N(C)C)cc12)c1ccccc1` [Example 95, (2S,2′S)-N,N′-5,6,7,12-tetrahydrobenzo[6,7]cyclohepta[1,2-b]indole-3,9-diylbis{1-[(2R)-2-(dimethylamino)-2-phenylacetyl]pyrrolidine-2-carboxamide}] is 0.01 nM.

As for `CC(C)(C)CC(=O)N[C@H](C(=O)N1CCC[C@H]1C(=O)Nc1ccc2c(c1)CCc1c-2[nH]c2ccccc12)c1ccccc1` [Example 96, N-(6,11-dihydro-5H-benzo[a]carbazol-3-yl)-1-{(2S)-2-[(3,3-dimethylbutanoyl)amino]-2-phenylacetyl}-L-prolinamide], the half-maximal effective concentration (EC50) stood at 0.015 nM. This EC50 lies about 1.5-fold higher than the previous one.

`CC(C)(C)OC(=O)N[C@@H](C(=O)N1CCC[C@H]1C(=O)Nc1ccc2[nH]c(-c3ccc(-c4cnc([C@@H]5CCCN5C(=O)[C@H](NC(=O)OC(C)(C)C)c5ccccc5)[nH]4)cc3)cc2c1)c1ccccc1` [Example 99, tert-butyl {(1R)-2-[(2S)-2-(5-{4-[5-({[(2S)-1-{(2R)-2-[(tert-butoxycarbonyl)amino]-2-phenylacetyl}pyrrolidin-2-yl]carbonyl}amino)-1H-indol-2-yl]phenyl}-1H-imidazol-2-yl)pyrrolidin-1-yl]-2-oxo-1-phenylethyl}carbamate] returned a concentration giving a half-maximal response (EC50) of 0.038 nM.

The same assay, now with this note: genotype 1b replicon cells, 24 to 72 hours incubation, luciferase activity.
`CN(C)[C@@H](C(=O)N1CCC[C@H]1C(=O)Nc1ccc2[nH]c(-c3ccc(NC(=O)[C@@H]4CCCN4C(=O)[C@H]4CCCO4)cc3)cc2c1)c1ccccc1` [Example 72] yielded an EC50 of 0.17 nM.

The values are drawn from US11053243B2 (Merck Sharp & Dohme Corp., priority 2009, dated 2021).
